The experiment has as its target T1, hM4D(Gi) (human M4 muscarinic receptor-based DREADD) (Homo sapiens, UniProt P08173, A203G/Y113C).
T1 construct: gene CHRM4; hM4D(Gi) plasmid (Addgene 45548)
T1 sequence (P08173 1-479 Y113C/A203G): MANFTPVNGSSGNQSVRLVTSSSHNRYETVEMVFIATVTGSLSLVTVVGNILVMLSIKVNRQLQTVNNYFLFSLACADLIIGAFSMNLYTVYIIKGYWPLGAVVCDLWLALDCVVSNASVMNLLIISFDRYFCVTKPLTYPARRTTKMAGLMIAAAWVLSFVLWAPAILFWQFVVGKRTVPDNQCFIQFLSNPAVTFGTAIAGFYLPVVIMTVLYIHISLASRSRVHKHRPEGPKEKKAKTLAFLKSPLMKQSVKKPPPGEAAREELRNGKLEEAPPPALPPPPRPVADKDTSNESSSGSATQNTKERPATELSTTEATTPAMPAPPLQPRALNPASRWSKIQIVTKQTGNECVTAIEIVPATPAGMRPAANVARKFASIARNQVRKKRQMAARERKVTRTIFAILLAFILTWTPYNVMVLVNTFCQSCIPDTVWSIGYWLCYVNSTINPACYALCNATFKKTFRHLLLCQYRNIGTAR
The experiment in a line: whole-cell patch clamp of Kir3.[…] current potentiation in HEK cells transfected with hM4D(Gi). The class given is cell-based. (In general: The patch-clamp technique gives a direct electrical read-out from membranes.)

Structures are written as SMILES.

As a reminder, the EC50 is the concentration that produces a half-maximal response. Consider `c1ccc2c(c1)N=C(N1CCNCC1)c1ccccc1N2` [C21, compound 21], for which the EC50 amounted to 20 ± 4 nM.

For the molecule `CN1CCN(C2=Nc3ccccc3Cc3ccccc32)CC1` [PLP, perlapine], the EC50 was determined as 40 ± 10 nM.

(Values after article PMC6469940 (Science Advances, 2019).)
